Experiments:
[1] = biological target: T1, alpha2C adrenergic receptors (Homo sapiens, UniProt P18825); assay: Receptor Selection and Amplification Technology (RSAT) assay, alpha2C; format: cell-based; conditions: for EC50: NA = not active at concentrations less than 10 micromolar, read-out: Alpha 2C EC50; for Alpha 2C intrinsic activity: fraction of maximal effect of standard full agonist brimonidine (UK14304)
T1 construct: expressed in transfected cells; host or cells: NIH-3T3
T1 sequence (P18825 1-462): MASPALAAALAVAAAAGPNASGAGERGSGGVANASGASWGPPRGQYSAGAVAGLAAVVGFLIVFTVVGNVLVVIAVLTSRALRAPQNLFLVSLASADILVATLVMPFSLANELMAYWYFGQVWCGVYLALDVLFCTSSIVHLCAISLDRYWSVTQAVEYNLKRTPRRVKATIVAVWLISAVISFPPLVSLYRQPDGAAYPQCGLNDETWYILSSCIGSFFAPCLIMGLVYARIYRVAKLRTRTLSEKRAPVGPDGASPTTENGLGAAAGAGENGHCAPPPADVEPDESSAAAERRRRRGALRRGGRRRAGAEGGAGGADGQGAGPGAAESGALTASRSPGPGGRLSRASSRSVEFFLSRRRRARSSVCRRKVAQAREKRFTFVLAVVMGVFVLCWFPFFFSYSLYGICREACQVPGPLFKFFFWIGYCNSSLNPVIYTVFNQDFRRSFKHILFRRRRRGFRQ
Excerpt: (§1) The imidazole-2-thione compounds of the invention are agonists of alpha2 adrenergic receptors, particularly they tend to be specific or selective agonists of alpha2B and/or to a lesser extent alpha2C adrenergic receptors, in preference over alpha2A adrenergic receptors. […] Al., 1995, Pharmacol. Toxicol. 76, pp. 308-311 (incorporated herein by reference) and is also described below. Another reference pertinent to this assay is Conklin et al. (1993) Nature 363:274-6, also incorporated herein by reference.
(§2) Receptor Selection and Amplification Technology (RSAT) Assay
(§3) The RSAT assay measures a receptor-mediated loss of contact inhibition that results in selective proliferation of receptor-containing cells in a mixed population of confluent cells. The increase in cell number is assessed with an appropriate transfected marker gene such as β-galactosidase, the activity of which can be easily measured in a 96-well format. Receptors that activate the G protein, Gq, elicit this response. Alpha2 receptors, which normally couple to Gi, activate the RSAT response when coexpressed with a hybrid Gq protein that has a Gi receptor recognition domain, called Gq/i5.
(§4) NIH-3T3 cells are plated at a density of 2×10^6 cells in 15 cm dishes and maintained in Dulbecco's modified Eagle's medium supplemented with 10% calf serum. One day later, cells are cotransfected by calcium phosphate precipitation with mammalian expression plasmids encoding p-SV-β-galactosidase (5-10 μg), receptor (1-2 μg) and G protein (1-2 μg). 40 μg salmon sperm DNA may also be included in the transfection mixture. Fresh media is added on the following day and 1-2 days later, cells are harvested and frozen in 50 assay aliquots. Cells are thawed and 100 μl added to 100 μl aliquots of various concentrations of drugs in triplicate in 96-well dishes. Incubations continue 72-96 hr at 37 EC. After washing with phosphate-buffered saline, β-galactosidase enzyme activity is determined by adding 200 μl of the chromogenic substrate (consisting of 3.5 mM o-nitrophenyl-β-D-galactopyranoside and 0.5% nonidet P-40 in phosphate buffered saline), incubating overnight at 30 EC and measuring optical density at 420 nm. The absorbance is a measure of enzyme activity, which depends on cell number and reflects a receptor-mediated cell proliferation. The EC50 and maximal effect of each drug at each alpha2 receptor is determined. The efficacy or intrinsic activity is calculated as a ratio of the maximal effect of the drug to the maximal effect of a standard full agonist for each receptor subtype. Brimonidine, also called UK14304, the chemical structure of which is shown below, is used as the standard agonist for the alpha2A, alpha2B and alpha2C receptors.
(§5) The results of the RSAT assay with several exemplary compounds of the invention are disclosed in Table 1 above together with the chemical formulas of these examplary compounds. […] NA stands for “not active” at concentrations less than 10 micromolar. As is known EC50 is the concentration at which half of a given compound's maximal activity is observed.

[2] = biological target: T2, alpha2B adrenergic receptors (Homo sapiens, UniProt P18089); assay: Receptor Selection and Amplification Technology (RSAT) assay, alpha2B; format: cell-based; conditions: for EC50: NA = not active at concentrations less than 10 micromolar, read-out: Alpha 2B EC50; for Alpha 2B intrinsic activity: fraction of maximal effect of standard full agonist brimonidine (UK14304)
T2 construct: expressed in transfected cells; host or cells: NIH-3T3
T2 sequence (P18089 1-450): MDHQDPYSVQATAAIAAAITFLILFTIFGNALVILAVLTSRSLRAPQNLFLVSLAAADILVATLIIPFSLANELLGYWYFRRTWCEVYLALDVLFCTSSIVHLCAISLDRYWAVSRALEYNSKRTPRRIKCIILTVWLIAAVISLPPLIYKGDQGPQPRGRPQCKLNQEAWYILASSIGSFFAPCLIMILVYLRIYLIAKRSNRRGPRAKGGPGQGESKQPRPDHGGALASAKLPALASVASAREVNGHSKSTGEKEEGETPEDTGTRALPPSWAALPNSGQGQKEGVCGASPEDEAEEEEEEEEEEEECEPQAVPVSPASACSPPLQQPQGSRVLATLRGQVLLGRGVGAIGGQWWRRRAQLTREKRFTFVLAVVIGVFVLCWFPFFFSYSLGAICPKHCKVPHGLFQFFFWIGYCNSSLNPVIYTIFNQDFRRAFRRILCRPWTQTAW
Excerpt: as §1, §2, §3, §4, §5

Row | Structure (SMILES) | EC50 [1] [µM] | Alpha 2C intrinsic activity [1] | EC50 [2] [µM] | Alpha 2B intrinsic activity [2]
1 | Fc1cccc(C2=CCCC2Cc2c[nH]c(=S)[nH]2)c1 (stereo not shown) | 0.191 | 0.45 |  | 
2 | S=c1[nH]cc(C2CCc3ccccc3CC2)[nH]1 |  |  | 0.017 | 0.82
3 | CCC1=C(C)CCC(Cc2c[nH]c(=S)[nH]2)C1 (stereo not shown) |  |  | 0.006 | 1.08
4 | Fc1cccc2c1CCC2Cc1c[nH]c(=S)[nH]1 (stereo not shown) |  |  | 0.0345 | 0.93
5 | Fc1ccc2c(c1F)CCC2Cc1c[nH]c(=S)[nH]1 (stereo not shown) |  |  | 0.834 | 0.54
6 | S=c1[nH]cc(CC2CCC=C2c2ccccc2)[nH]1 (stereo not shown) | 0.214 | 0.68 |  | 
7 | Fc1cccc(C2=CCC[C@@H]2Cc2c[nH]c(=S)[nH]2)c1 |  |  | 1.47 | 0.66
8 | CC1=CC(Cc2c[nH]c(=S)[nH]2)CC1 (stereo not shown) |  |  | 0.081 | 0.81
9 | S=c1[nH]cc(CC2CCc3c(Cl)cccc32)[nH]1 (stereo not shown) |  |  | 0.0313 | 0.91
10 | O=C1c2cccnc2CCC1Cc1c[nH]c(=S)[nH]1 (stereo not shown) |  |  | 0.72 | 0.6
11 | Cc1ccc(C)c2c1CCC2Cc1c[nH]c(=S)[nH]1 (stereo not shown) |  |  | 0.105 | 0.64
12 | CCC1=CCC(Cc2c[nH]c(=S)[nH]2)CC1 (stereo not shown) |  |  | 0.451 | 0.68
13 | Fc1ccc(C2=CCC[C@H]2Cc2c[nH]c(=S)[nH]2)cc1 | 0.715 | 0.61 |  | 
14 | COc1cc(F)c2c(c1)CC(c1c[nH]c(=S)[nH]1)C2 (stereo not shown) |  |  | 0.022 | 1.02
15 | O=C1c2ccc(O)cc2CCC1Cc1c[nH]c(=S)[nH]1 (stereo not shown) |  |  | 1.01 | 0.48
16 | S=c1[nH]cc(CC2CCc3sccc3C2)[nH]1 (stereo not shown) [drawing 22] |  |  | 0.014 | 0.74
17 | S=c1[nH]cc(CC2CCC3=C(CCCC3)C2)[nH]1 (stereo not shown) |  |  | 0.086 | 0.78
18 | C[C@@H]1c2ccccc2C[C@H]1c1c[nH]c(=S)[nH]1 |  |  | 0.005 | 1.03
19 | N#C/C=C1/c2ccccc2CCC1Cc1c[nH]c(=S)[nH]1 (stereo not shown) |  |  | 0.99 | 0.5
20 | Fc1cc(F)cc(C2=CCCC2Cc2c[nH]c(=S)[nH]2)c1 (stereo not shown) | 0.241 | 0.66 |  | 
21 | O=C1c2ccccc2CC[C@H]1Cc1c[nH]c(=S)[nH]1 |  |  | 0.041 | 0.83
22 | S=c1[nH]cc(CC2CCc3ccccc3C2)[nH]1 (stereo not shown) |  |  | 0.017 | 0.65
23 | S=c1[nH]cc(CC2Cc3ccccc3C2)[nH]1 |  |  | 0.11 | 0.65
24 | S=c1[nH]cc(CC2CCc3cc(Cl)ccc32)[nH]1 (stereo not shown) |  |  | 1.15 | 0.37

Row | Structure (SMILES) | EC50 [1] [µM] | Alpha 2C intrinsic activity [1] | EC50 [2] [µM] | Alpha 2B intrinsic activity [2]
25 | S=c1[nH]cc(C[C@@H]2CCC3=C(CCCC3)C2)[nH]1 |  |  | 0.06 | 0.73
26 | C#CC1=CCC(Cc2c[nH]c(=S)[nH]2)CC1 (stereo not shown) |  |  | 0.265 | 0.60
27 | S=c1[nH]cc(C2Cc3ccccc3C2)[nH]1 |  |  | 0.006 | 0.98
28 | CC1=CCC(Cc2c[nH]c(=S)[nH]2)OC1 (stereo not shown) |  |  | 0.469 | 0.87
29 | O=C1c2c(Cl)cccc2CCC1Cc1c[nH]c(=S)[nH]1 (stereo not shown) |  |  | 0.115 | 0.99
30 | S=c1[nH]cc(CC2CCc3ncccc3C2)[nH]1 (stereo not shown) |  |  | 1.59 | 0.74
31 | S=c1[nH]cc(C[C@H]2CCc3ccccc3C2)[nH]1 |  |  | 0.395 | 0.41
32 | Fc1cc(F)c2c(c1)CC(c1c[nH]c(=S)[nH]1)C2 (stereo not shown) |  |  | 0.0065 | 0.81
33 | O=C1C2=C(CCCC2)CCC1Cc1c[nH]c(=S)[nH]1 (stereo not shown) |  |  | 0.815 | 0.83
34 | CC1=CCC(Cc2c[nH]c(=S)[nH]2)CC1 (stereo not shown) |  |  | 0.061 | 0.72
35 | S=c1[nH]cc(C2Cc3ccc(Cl)cc3C2)[nH]1 (stereo not shown) |  |  | 0.0575 | 0.85
36 | S=c1[nH]cc(C[C@@H]2CCc3ccccc3C2)[nH]1 |  |  | 0.0137 | 0.93
37 | Fc1ccc2c(c1)CC(c1c[nH]c(=S)[nH]1)C2 (stereo not shown) |  |  | 0.03 | 0.75
38 | N#C/C=C1\c2ccccc2CCC1Cc1c[nH]c(=S)[nH]1 (stereo not shown) |  |  | 0.16 | 0.94
39 | S=c1[nH]cc(CC2CCSc3ccccc32)[nH]1 (stereo not shown) |  |  | 0.286 | 1.16
40 | S=c1[nH]cc(CC2CCCc3cccc(Cl)c32)[nH]1 (stereo not shown) |  |  | 0.074 | 0.78
41 | O=C1c2ccccc2CCC1Cc1c[nH]c(=S)[nH]1 (stereo not shown) |  |  | 0.018 | 1.0
42 | O=C1c2ccc(F)cc2CCC1Cc1c[nH]c(=S)[nH]1 (stereo not shown) |  |  | 0.3 | 0.76
43 | O=C1c2ccsc2CCC1Cc1c[nH]c(=S)[nH]1 (stereo not shown) |  |  | 0.106 | 0.97
44 | CC(C)C1=C(c2ccc(F)cc2)C(Cc2c[nH]c(=S)[nH]2)CC1 (stereo not shown) |  |  | 0.269 | 0.79
45 | O=C1c2ccccc2CC1Cc1c[nH]c(=S)[nH]1 (stereo not shown) |  |  | 0.85 | 0.71
46 | CC1=C(C)CC(Cc2c[nH]c(=S)[nH]2)CC1 (stereo not shown) |  |  | 0.025 | 0.61
47 | O=C1c2ccccc2CC[C@@H]1Cc1c[nH]c(=S)[nH]1 |  |  | 0.092 | 0.79

Source: patent US7323485B2, “4-(substituted cycloalkylmethyl) imidazole-2-thiones, 4-(substituted cycloalkenylmethyl) imidazole-2-thiones, 4-(substituted cycloalkylmethyl) imidazol-2-ones and 4-(substituted cycloalkenylmethyl) imidazol-2-ones and related compounds” (Allergan, Inc., priority 2002, dated 2008)
